SMILES strings stand for the structures.

For the experiment, the target named is T1, TLR9 (Homo sapiens, UniProt Q9NR96).
T1 sequence (Q9NR96 26-1032): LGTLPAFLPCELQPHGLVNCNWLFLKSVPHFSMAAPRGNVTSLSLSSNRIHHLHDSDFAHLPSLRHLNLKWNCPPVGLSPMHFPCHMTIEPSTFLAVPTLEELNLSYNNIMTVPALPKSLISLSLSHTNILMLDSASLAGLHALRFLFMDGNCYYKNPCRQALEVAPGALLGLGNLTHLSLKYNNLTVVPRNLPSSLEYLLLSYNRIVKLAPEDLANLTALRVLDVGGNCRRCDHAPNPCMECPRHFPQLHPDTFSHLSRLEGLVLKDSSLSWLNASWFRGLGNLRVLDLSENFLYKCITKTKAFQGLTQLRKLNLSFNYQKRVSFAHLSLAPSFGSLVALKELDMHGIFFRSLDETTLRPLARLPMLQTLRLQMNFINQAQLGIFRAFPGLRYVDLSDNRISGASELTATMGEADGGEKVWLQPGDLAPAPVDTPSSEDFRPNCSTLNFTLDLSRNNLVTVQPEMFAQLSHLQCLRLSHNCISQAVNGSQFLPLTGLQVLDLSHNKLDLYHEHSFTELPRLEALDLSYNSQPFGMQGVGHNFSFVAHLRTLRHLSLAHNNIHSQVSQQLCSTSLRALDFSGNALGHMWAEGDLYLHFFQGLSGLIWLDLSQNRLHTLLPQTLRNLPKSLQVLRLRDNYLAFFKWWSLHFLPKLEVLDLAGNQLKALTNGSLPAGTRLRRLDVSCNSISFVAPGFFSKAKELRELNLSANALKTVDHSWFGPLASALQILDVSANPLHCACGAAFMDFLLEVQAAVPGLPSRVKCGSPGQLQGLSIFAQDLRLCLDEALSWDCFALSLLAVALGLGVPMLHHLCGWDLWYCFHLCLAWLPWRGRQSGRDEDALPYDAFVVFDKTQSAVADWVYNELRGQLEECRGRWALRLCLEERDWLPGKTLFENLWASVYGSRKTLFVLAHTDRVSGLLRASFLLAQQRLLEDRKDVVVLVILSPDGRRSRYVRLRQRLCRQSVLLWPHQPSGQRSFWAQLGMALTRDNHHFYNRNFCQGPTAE
Briefly: HEK293-Blue-hTLR-9 cells assay (SEAP reporter, ODN2006 stimulation). The format is cell-based. Conditions: HEK293-Blue-hTLR9 cells, ODN2006, 20 hrs; read-out: HEK/hTLR9 IC50. Further details: host or cells: HEK293 (HEK-Blue hTLR9). The procedure:
The following tests were carried out in order to determine the activity of the compounds of formula (I) and (Ia) in HEK293-Blue-hTLR-7/8/9 cells assay.
A stable HEK293-Blue-hTLR-9 cell line was purchased from InvivoGen (Cat. #: hkb-htlr9, San Diego, California, USA). These cells were originally designed for studying the stimulation of human TLR9 by monitoring the activation of NF-κB. A SEAP (secreted embryonic alkaline phosphatase) reporter gene was placed under the control of the IFN-β minimal promoter fused to five NF-κB and AP-1-binding sites. The SEAP was induced by activating NF-κB and AP-1 via stimulating HEK-Blue hTLR9 cells with TLR9 ligands. Therefore the reporter expression was declined by TLR9 antagonist under the stimulation of a ligand, such as ODN2006 (Cat. #: tlrl-2006-1, Invivogen, San Diego, California, USA), for incubation of 20 hrs. The cell culture supernatant SEAP reporter activity was determined using QUANTI-Blue™ kit (Cat. #: rep-qb1, Invivogen, San Diego, California, USA) at a wavelength of 640 nm, a detection medium that turns purple or blue in the presence of alkaline phosphatase.
HEK293-Blue-hTLR9 cells were incubated at a density of 250,000-450,000 cells/mL in a volume of 170 μL in a 96-well plate in Dulbecco's Modified Eagle's medium (DMEM) containing 4.5 g/L glucose, 50 U/mL penicillin, […], […], 2 mM L-glutamine, 10% (v/v) heat-inactivated fetal bovine serum with addition of 20 μL test compound in a serial dilution in the presence of final DMSO at 1% and 10 μL of 20 uM ODN2006 in above DMEM, perform incubation under 37° C. in a CO2 incubator for 20 hrs. Then 20 μL of the supernatant from each well was incubated with 180 μL Quanti-blue substrate solution at 37° C. for 2 h and the absorbance was read at 620˜655 nm using a spectrophotometer.
The signaling pathway that TLR9 activation leads to downstream NF-κB activation has been widely accepted, and therefore similar reporter assay was modified for evaluating TLR9 antagonist.
As for `C[C@H]1CN(c2ccnc3c2cnn3C)Cc2ccc(OC[C@H]3CNCCN3C)cc21` [Example 43, (4R)-4-methyl-2-(1-methylpyrazolo[3,4-b]pyridin-4-yl)-6-[[(2R)-1-methylpiperazin-2-yl]methoxy]-3,4-dihydro-1H-isoquinoline], the IC50 is 242 nM.
Under `C[C@H]1CN(c2ccnc3c2cnn3C)Cc2ccc(OC[C@@H]3CNCCN3C)cc21` [Example 44, (4R)-4-methyl-2-(1-methylpyrazolo[3,4-b]pyridin-4-yl)-6-[[(2S)-1-methylpiperazin-2-yl]methoxy]-3,4-dihydro-1H-isoquinoline] stands 234 nM; under `C[C@H]1CN(c2ccnc3c2cnn3C)Cc2ccc(OC[C@@H]3CNCCN3C=O)cc21` [Example 45, (2S)-2-[[(4R)-4-methyl-2-(1-methylpyrazolo[3,4-b]pyridin-4-yl)-3,4-dihydro-1H-isoquinolin-6-yl]oxymethyl]piperazine-1-carbaldehyde], 350 nM; under `C[C@H]1CN(c2ccnc3c2cnn3C)Cc2ccc(N3C[C@@H](N)[C@H](O)C3)cc21` [Example 46, trans-4-amino-1-[(4R)-4-methyl-2-(1-methylpyrazolo[3,4-b]pyridin-4-yl)-3,4-dihydro-1H-isoquinolin-6-yl]pyrrolidin-3-ol], 360 nM.
Under `Cc1cc(N2Cc3ccc(N4C[C@@H](N)[C@H](O)C4)cc3[C@@H](C)C2)c2cnn(C)c2n1` [Example 47, trans-4-amino-1-[(4R)-2-(1,6-dimethylpyrazolo[3,4-b]pyridin-4-yl)-4-methyl-3,4-dihydro-1H-isoquinolin-6-yl]pyrrolidin-3-ol] stands 230 nM; under `Cc1cc(N2Cc3ccc(N4CC5(CNCCO5)C4)cc3[C@@H](C)C2)c2cnn(C)c2n1` [Example 48, 2-[(4R)-2-(1,6-dimethylpyrazolo[3,4-b]pyridin-4-yl)-4-methyl-3,4-dihydro-1H-isoquinolin-6-yl]-5-oxa-2,8-diazaspiro[3.5]nonane], 229 nM; under `C[C@H]1CN(c2ccnc3c2cnn3C)Cc2ccc(N3CCNC(CO)C3)cc21` (stereo partly drawn) [Example 49, [4-[(4R)-4-methyl-2-(1-methylpyrazolo[3,4-b]pyridin-4-yl)-3,4-dihydro-1H-isoquinolin-6-yl]piperazin-2-yl]methanol], 199 nM.
The same measure for `C[C@H]1CN(c2ccnc3c2cnn3C)Cc2ccc(N3CCN[C@@H](CO)C3)cc21` [Example 50, [(2R)-4-[(4R)-4-methyl-2-(1-methylpyrazolo[3,4-b]pyridin-4-yl)-3,4-dihydro-1H-isoquinolin-6-yl]piperazin-2-yl]methanol]: 376 nM; for `C[C@H]1CN(c2ccnc3c2cnn3C)Cc2ccc(N3CCN[C@H](CO)C3)cc21` [Example 51, [(2S)-4-[(4R)-4-methyl-2-(1-methylpyrazolo[3,4-b]pyridin-4-yl)-3,4-dihydro-1H-isoquinolin-6-yl]piperazin-2-yl]methanol]: 365 nM.
In the case of `C[C@H]1CN(c2ccnc3c2cnn3C)Cc2ccc(N3CC4(CCNC4)CC3=O)cc21` (stereo partly drawn) [Example 52, 2-[(4R)-4-methyl-2-(1-methylpyrazolo[3,4-b]pyridin-4-yl)-3,4-dihydro-1H-isoquinolin-6-yl]-2,7-diazaspiro[4.4]nonan-3-one], the IC50 amounted to 117 nM.
The same measure for `Cc1cc(N2Cc3ccc(N4CCC(N)CC4)nc3[C@@H](C)C2)c2cnn(C)c2n1` [Example 58, 1-[(8S)-6-(1,6-dimethylpyrazolo[3,4-b]pyridin-4-yl)-8-methyl-7,8-dihydro-5H-1,6-naphthyridin-2-yl]piperidin-4-amine]: 199 nM.
The same measure for `Cc1cc(N2Cc3ccc(N4CCC(C)(N)CC4)nc3[C@@H](C)C2)c2cnn(C)c2n1` [Example 59, 4-methyl-1-[(8S)-6-(1,6-dimethylpyrazolo[3,4-b]pyridin-4-yl)-8-methyl-7,8-dihydro-5H-1,6-naphthyridin-2-yl]piperidin-4-amine]: 121 nM.
Consider `Cc1cc(N2Cc3ccc(N4CCC(N(C)C)CC4)nc3[C@@H](C)C2)c2cnn(C)c2n1` [Example 60, N,N-dimethyl-1-[(8S)-6-(1,6-dimethylpyrazolo[3,4-b]pyridin-4-yl)-8-methyl-7,8-dihydro-5H-1,6-naphthyridin-2-yl]piperidin-4-amine], for which the IC50 is 104 nM.
For the compound `Cc1cc(N2Cc3ccc(N4CCC(O)(CN(C)C)CC4)nc3[C@@H](C)C2)c2cnn(C)c2n1` [Example 61, 4-[(dimethylamino)methyl]-1-[(8S)-6-(1,6-dimethylpyrazolo[3,4-b]pyridin-4-yl)-8-methyl-7,8-dihydro-5H-1,6-naphthyridin-2-yl]piperidin-4-ol], the IC50 came out at 129 nM.
Under `C[C@H]1CN(c2ccnc3c2cnn3C)Cc2ccc(N3CCNCC3)nc21` [Example 62, (8S)-8-methyl-6-(1-methylpyrazolo[3,4-b]pyridin-4-yl)-2-piperazin-1-yl-7,8-dihydro-5H-1,6-naphthyridine] stands 264 nM.
Under `CO[C@@H]1CN(c2ccc3c(n2)[C@@H](C)CN(c2cc(C)nc4c2cnn4C)C3)C[C@H]1N` [Example 63, (3R,4R)-4-methoxy-1-[(8S)-6-(1,6-dimethylpyrazolo[3,4-b]pyridin-4-yl)-8-methyl-7,8-dihydro-5H-1,6-naphthyridin-2-yl]pyrrolidin-3-amine] stands 236 nM; under `Cc1cc(N2Cc3ccc(OC4CCNCC4)nc3[C@@H](C)C2)c2cnn(C)c2n1` [Example 64, (8S)-6-(1,6-dimethylpyrazolo[3,4-b]pyridin-4-yl)-8-methyl-2-(4-piperidyloxy)-7,8-dihydro-5H-1,6-naphthyridine], 249 nM; under `CO[C@H]1CN(c2ccc3c(n2)[C@@H](C)CN(c2cc(C)nc4c2cnn4C)C3)CC[C@@H]1N` [Example 65, (3S,4S)-3-methoxy-1-[(8S)-6-(1,6-dimethylpyrazolo[3,4-b]pyridin-4-yl)-8-methyl-7,8-dihydro-5H-1,6-naphthyridin-2-yl]piperidin-4-amine], 106 nM.
The same measure for `Cc1cc(N2Cc3ccc(N4CCNCC4)nc3[C@@H](C)C2)c2cnn(C)c2n1` [Example 66, (8S)-6-(1,6-dimethylpyrazolo[3,4-b]pyridin-4-yl)-8-methyl-2-piperazin-1-yl-7,8-dihydro-5H-1,6-naphthyridine]: 132 nM; for `Cc1cc(N2Cc3ccc(N4CCN(C)CC4)nc3[C@@H](C)C2)c2cnn(C)c2n1` [Example 67, (8S)-6-(1,6-dimethylpyrazolo[3,4-b]pyridin-4-yl)-8-methyl-2-(4-methylpiperazin-1-yl)-7,8-dihydro-5H-1,6-naphthyridine]: 282 nM; for `Cc1cc(N2Cc3ccc(N4CC5(CNCCO5)C4)nc3[C@@H](C)C2)c2cnn(C)c2n1` [Example 68, 2-[(8S)-6-(1,6-dimethylpyrazolo[3,4-b]pyridin-4-yl)-8-methyl-7,8-dihydro-5H-1,6-naphthyridin-2-yl]-5-oxa-2,8-diazaspiro[3.5]nonane]: 332 nM.

The values are drawn from patent US20240317735A1, “HYDROISOQUINOLINE OR HYDRONAPHTHYRIDINE COMPOUNDS FOR THE TREATMENT OF AUTOIMMUNE DISEASE” (Hoffmann-La Roche Inc., priority 2020, published 2024).
